Data from patent publication US20010053783A1, “PHARMACEUTICAL COMPOUNDS” (priority 1997, published 2001).

Molecular target: human 2A receptor (5-HT2A) (Homo sapiens, UniProt P28223)
Assay: 5-HT2A receptor binding, displacement of [3H] ketanserin (Nelson et al.)
Settings: human 2A receptor binding, versus 5-fluoroindolyl propyl comparator
Text: As mentioned above, the compounds of the invention are active at the serotonin, 5-HT2A, receptor.

human 2A receptor (5-HT2A), sequence (P28223 whole entry): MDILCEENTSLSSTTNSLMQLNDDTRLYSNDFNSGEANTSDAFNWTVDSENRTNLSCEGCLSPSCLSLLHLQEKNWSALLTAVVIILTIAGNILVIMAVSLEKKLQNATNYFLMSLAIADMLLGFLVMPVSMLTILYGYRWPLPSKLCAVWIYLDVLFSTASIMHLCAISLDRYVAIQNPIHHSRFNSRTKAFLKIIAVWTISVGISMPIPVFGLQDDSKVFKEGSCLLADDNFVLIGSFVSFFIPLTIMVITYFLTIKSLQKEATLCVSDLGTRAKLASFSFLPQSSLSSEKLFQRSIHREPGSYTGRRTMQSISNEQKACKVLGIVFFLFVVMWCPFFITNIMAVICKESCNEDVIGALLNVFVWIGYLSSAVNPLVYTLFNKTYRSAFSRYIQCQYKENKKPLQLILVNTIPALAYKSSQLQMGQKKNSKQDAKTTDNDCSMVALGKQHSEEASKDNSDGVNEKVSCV

O=S1(=O)N(CCN2CC=C(c3c[nH]c4cc(F)ccc34)CC2)c2cccc3c2N1CCC3 [1-{2-[4-(6-Fluoro-[1H]-indol-3-yl)-1,2,3,6-tetrahydro-1-pyridinyl]-1-ethyl}-5,6-dihydro-1H,4H-1,2,5-thiadiazolo[4,3,2-ij]quinoline-2,2-dioxide]
times more active than the closest structurally related compound of EP-A 0 433 149: approximately twenty-eight
